Measured values: patent publication US8337900B2, “Reverse-phase microcapsules for active ingredients, simplified process of manufacture thereof and combined formulation WDG-CS, ZC, EC-SC, and CX” (priority 2006, dated 2012)

Assays:
[1] = Stability to hydrolysis versus commercial formulations; format: physicochemical; conditions: in a CX, microencapsulated in NPμ and combined with sulfosate
Source text: This refers to the typical variations: thifensulfuron-ethyl<→thifensulfuron, etc.

[2] = Accelerated heat stability test (54° C.), physical stability and chemical degradation by HPLC; format: physicochemical; conditions: NPμ in a CX-w; results and process not shown
Method: Both formulations were submitted to accelerated heat stability tests (at 54° C. for 2 weeks).
Also, presence of unencapsulated material—water soluble a.i.—was below 0.1%.
These tests were performed with HPLC and standard methods of analysis under Good Laboratory Practice conditions.

[3] = cited from earlier work

COc1cc(OC)nc(NC(=O)NS(=O)(=O)c2ncccc2C(=O)N(C)C)n1 [nicosulfuron]
more stable to hydrolysis than current commercial formulations [1]: at least 20 % times

COC(=O)c1ccccc1S(=O)(=O)NC(=O)N(C)c1nc(C)nc(OC)n1 [tribenuron-methyl]
degradation inhibition by microencapsulation [2]: equally observed

CC(C)(C)C(O)(CCc1ccc(Cl)cc1)Cn1cncn1 (centres unmarked) [tebuconazole]
solubility in hexane ([3]; hexane): lower than 0.1 g/L

O=C(O)c1cc(Oc2ccc(C(F)(F)F)cc2Cl)ccc1[N+](=O)[O-] [acifluorfen-sodium]
solubility in isooctanol ([3]; isooctanol): around 6 g/L | solubility in water ([3]; water): about 60 g/L
